Measurements as given in article PMC7934871 (JCI Insight, 2021).

Molecular target: STAT3 (Homo sapiens, UniProt P40763)
Experiment: Immunoprecipitation and Western blotting, STAT3
Assay type: binding
Parameters: endogenous in cells; host or cells: U251
Conditions: immunoprecipitation, Western blotting, U251 cells
Description: Figure 2 PS-acet.-STAT3-peptide specifically binds STAT3 in the nucleus. (A) Penetration of PS-acet.-STAT3 peptide and its colocalization with STAT3 protein in U251 cells are confirmed by confocal microscopy. Scale bars: 50 μm. Insets: original magnification, ×40. (B) PS-acet.-STAT3 peptide specifically binds to STAT3 protein, not STAT1 and STAT5 proteins, shown in U251 cells by immunoprecipitation followed by Western blotting (left panel). Expression of total STAT1, STAT3, and STAT5 was confirmed by Western blotting in U251 cells (input protein level, right panel).
Whole cell lysates or tissue homogenates were prepared by using RIPA lysis buffer (50 mM Tris at pH 7.4, 150 mM NaCl, 1 mM EDTA, 0.5% NP-40, 1 mM NaF, 15% glycerol, and 20 mM β-glycerophosphate). […] Protein amounts were determined by BCA using a Thermo Fisher Scientific kit. […] The protein levels for STAT1 (sc-346, E-23), STAT3 (sc-482, C-20), STAT5 (sc-74442, A-9), Crm1 (exportin 1) (sc-5595, H-300), CAS (exportin 2) (sc-271537, H-2), exportin 5 (sc-66885, H-300), and exportin 7 (sc-98639, H-82) were determined using antibodies from Santa Cruz Biotechnology Inc. Anti–exportin 3 (exportin T, 630622, LOS1 05-1525), anti–exportin 4 (3499-1), and anti–exportin 6 (11408-1-AP) were from MilliporeSigma, Epitomics, and Proteintech, respectively. […]

Sequence of STAT3 (P40763 whole entry): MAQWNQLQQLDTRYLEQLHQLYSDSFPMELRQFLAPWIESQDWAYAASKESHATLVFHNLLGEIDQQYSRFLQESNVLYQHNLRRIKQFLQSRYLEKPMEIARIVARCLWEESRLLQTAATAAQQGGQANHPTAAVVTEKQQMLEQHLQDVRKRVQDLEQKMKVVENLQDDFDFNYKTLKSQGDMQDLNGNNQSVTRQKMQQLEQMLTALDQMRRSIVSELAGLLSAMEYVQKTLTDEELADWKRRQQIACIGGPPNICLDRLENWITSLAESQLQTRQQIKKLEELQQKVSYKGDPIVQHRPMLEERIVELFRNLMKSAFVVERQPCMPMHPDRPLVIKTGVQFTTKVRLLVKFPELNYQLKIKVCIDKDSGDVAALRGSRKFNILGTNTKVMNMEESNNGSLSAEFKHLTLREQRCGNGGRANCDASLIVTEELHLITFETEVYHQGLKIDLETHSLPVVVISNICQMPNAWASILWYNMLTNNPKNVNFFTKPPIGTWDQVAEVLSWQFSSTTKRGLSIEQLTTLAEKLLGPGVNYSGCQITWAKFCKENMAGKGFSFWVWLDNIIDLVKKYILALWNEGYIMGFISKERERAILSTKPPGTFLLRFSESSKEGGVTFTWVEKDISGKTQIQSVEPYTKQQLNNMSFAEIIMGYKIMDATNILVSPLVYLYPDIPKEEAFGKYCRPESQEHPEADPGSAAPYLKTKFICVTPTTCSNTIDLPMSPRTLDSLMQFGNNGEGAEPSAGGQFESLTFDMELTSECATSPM

PDIPKEEAFGK685(Ac)YCRPESQEHPC-linker-T*C*C*A*T*G*A*G*C*T*T*C*C*T*G*A*T*G*C*T [PS-acet.-STAT3 peptide]
binding to STAT3 protein: specifically bound
